What follows are molecules tested on TDP-43 aggregation in PC12 cells stably expressing TDP-43^Q331K::eGFP (assay: In vitro efficacy assay, TDP-43 aggregation concentration-response). Details: Rattus norvegicus, PC-12, inhibition of TDP-43 aggregation; PC12 TDP-43^Q331K::eGFP, 1 hour pre-treatment, 15 μM sodium arsenite for 23 hours; 10-point dose response.
Format: cell-based
Procedure: Exemplary compounds of the invention were evaluated for efficacy in inhibiting TDP-43 inclusions using a concentration-response assay. Briefly, PC12 cells stably expressing a GFP-tagged mutant form of TDP-43 (TDP-43^Q331K::eGFP) were pre-treated for 1 hour with exemplary compounds and stressed with 15 μM sodium arsenite for 23 hours to induce TDP-43 aggregation. The inhibitory effect on TDP-43 aggregation was measured using fluorescence microscopy. The ratio of cells with TDP-43 aggregates was calculated based on the total number of cells with detectable GFP expression.

Structure (SMILES)	IC50 [µM]
CCN(CC1CCCN(Cc2ccc(OC)cc2)C1)C(=O)c1cc2ccc(OC)cc2[nH]1 (stereo not shown) [Compound 162]	1.5 to 4
CCN(CC1CCN(Cc2ccccc2Cl)CC1)C(=O)c1cc2ccccc2[nH]1 [compound 286]	1.5 to 4
CC(C)N(CC1CCN(Cc2ccc(F)cc2)CC1)C(=O)c1cc2ccccc2[nH]1 [compound 284]	> 10
COc1cccc(CCN2CCCC(CN(Cc3ccccc3)C(=O)c3cc4ccccc4[nH]3)C2)c1 (stereo not shown) [Compound 218]	> 10
CCN(CC1CCCN(C2Cc3ccccc3C2)C1)C(=O)c1cc2ccccc2[nH]1 (stereo not shown) [Compound 209]	4 to 7
CCN(CC1CCCN(CCc2cccc(OC)c2)C1)C(=O)C1Cc2ccccc2N1C (stereo not shown) [Compound 239]	> 10
CCN(CC1CCCNC1)C(=O)c1cc2cc(OC)c(OC)cc2[nH]1 (stereo not shown) [compound 415]	> 10
CCN(CC1CCCN(Cc2ccc(Cl)cc2)C1)C(=O)c1cc2cc(OC)c(OC)cc2[nH]1 (stereo not shown) [Compound 152]	> 10
CCN(CC1CCCN(CCc2ccccc2)C1)C(=O)c1cc2ccccc2[nH]1 (stereo not shown) [Compound 216]	1.5 to 4
CCN(CC1CCN(C(C)(C)Cc2ccc(Cl)cc2)CC1)C(=O)c1cc2ccccc2[nH]1 [Compound 341]	< 1.5
CCN(CC1CCCNC1)C(=O)c1cc2c(Cl)cc(Cl)cc2[nH]1 (stereo not shown) [compound 416]	> 10
CCN(CC1CCCN(c2cccc(OC)c2)C1)C(=O)c1cc2ccccc2[nH]1 (stereo not shown) [Compound 228]	> 10
CCN(CC1CCN(C(C)(C)Cc2ccccc2F)CC1)C(=O)c1cc2ccccc2[nH]1 [Compound 343]	1.5 to 4
CCN(CC1CCCN(Cc2cccc(F)c2)C1)C(=O)c1cc2ccccc2[nH]1 (stereo not shown) [Compound 131]	> 10
CCN(CC1CCCNC1)C(=O)c1cc2cc(Cl)ccc2[nH]1 (stereo not shown) [compound 420]	> 10
CC(C)N(CC1CCN(Cc2ccccc2)CC1)C(=O)c1cc2ccccc2[nH]1 [compound 285]	1.5 to 4
CC(C)(Cc1cccc(F)c1)N1CCC(CN(CC(F)(F)F)C(=O)c2cc3ccccc3[nH]2)CC1 [Compound 353]	< 1.5
CCN(CC1CCCNC1)C(=O)c1cc2ccc(C)cc2[nH]1 (stereo not shown) [compound 417]	> 10
CCN(CC1CCCN(CCc2cccc(OC(F)(F)F)c2)C1)C(=O)c1cc2cc(OC(F)(F)F)ccc2[nH]1 (stereo not shown) [Compound 179]	4 to 7
CCN(CC1CCN(Cc2ccccc2OC)CC1)C(=O)c1cc2ccccc2[nH]1 [compound 287]	4 to 7

Structure (SMILES)	IC50 [µM]
CCN(CC1CCN(Cc2ccc(Cl)cc2)CC1)C(=O)c1cc2cc(OC)ccc2[nH]1 [compound 403]	1.5 to 4
CCN(CC1CCCN(CCc2cccc(OC)c2)C1)C(=O)c1ccc[nH]1 (stereo not shown) [Compound 231]	1.5 to 4
CCN(CC1CCN(CC(C)(C)c2cc3ccccc3o2)CC1)C(=O)c1cc2ccccc2[nH]1 [Compound 405]	4 to 7
CCN(CC1CCCN(Cc2ccc(Cl)cc2)C1)C(=O)c1cc2cc(OCc3ccccc3)ccc2[nH]1 (stereo not shown) [Compound 173]	1.5 to 4
CCN(CC1CCCNC1)C(=O)c1cc2c(OC)cccc2[nH]1 (stereo not shown) [compound 422]	> 10
CCN(CC1CCCN(C(C)(C)Cc2cccc(Cl)c2)C1)C(=O)c1cc2ccccc2[nH]1 (stereo not shown) [compound 314]	< 1.5
CCN(CC1CCCN(Cc2ccc(OC)cc2)C1)C(=O)c1cc2cc(F)c(F)cc2[nH]1 (stereo not shown) [Compound 171]	< 1.5
CCN(CC1CCCN(CCc2cccc(OC)c2)C1)C(=O)c1nc2ccccc2n1C (stereo not shown) [Compound 240]	> 10
CCN(CC1CCCN(CCc2ccc(F)cc2)C1)C(=O)c1cc2ccccc2[nH]1 (stereo not shown) [Compound 126]	> 10
CCN(CC1CCCN(Cc2cc3ccccc3o2)C1)C(=O)c1cc2c(F)cc(F)cc2[nH]1 (stereo not shown) [Compound 205]	1.5 to 4
CCN(CC1CCCN(Cc2ccc(OC)cc2)C1)C(=O)c1cc2cc(OC)ccc2[nH]1 (stereo not shown) [Compound 149]	< 1.5
CCN(CC1CCN(Cc2cccc(Cl)c2)CC1)C(=O)c1cc2ccccc2[nH]1 [compound 266]	4 to 7
CCN(CC1CCCN(Cc2ccc(C(=O)O)cc2)C1)C(=O)c1cc2ccccc2[nH]1 (stereo not shown) [Compound 213]	> 10
CCN(CC1CCCN(CCc2ccc3c(c2)OCO3)C1)C(=O)c1cc2ccccc2[nH]1 (stereo not shown) [Compound 146]	1.5 to 4
CCN(CC1CCCN(CCc2cccc(OC)c2)C1)C(=O)c1coc2ccccc12 (stereo not shown) [Compound 233]	< 1.5
CCN(CC1CCCN(Cc2cccc(OC(F)(F)F)c2)C1)C(=O)c1cc2cc(OC(F)(F)F)ccc2[nH]1 (stereo not shown) [Compound 175]	> 10
CCN(CC1CCCNC1)C(=O)c1cc2c(F)cccc2[nH]1 (stereo not shown) [compound 421]	4 to 7
COc1ccccc1CN1CCC(CN(C)C(=O)c2cc3ccccc3[nH]2)CC1 [compound 260]	4 to 7
CN(CC1CCN(Cc2cccc(Cl)c2)CC1)C(=O)c1cc2ccccc2[nH]1 [compound 256]	> 10
CCN(CC1CCCN(CCc2ccc(Cl)cc2)C1)C(=O)c1cc2ccccc2[nH]1 (stereo not shown) [Compound 128]	< 1.5

The remaining lines, values ahead:

IC50 [µM]	Structure (SMILES)
> 10	CCN(CC1CCCN(Cc2ccc(OC(F)(F)F)cc2)C1)C(=O)c1cc2cc(OC(F)(F)F)ccc2[nH]1 (stereo not shown) [Compound 176]
> 10	CCN(CC1CCNCC1)C(=O)c1cc2cc(OC)ccc2[nH]1 [compound 400]
1.5 to 4	CCN(CC1CCCN(Cc2ccc(Cl)cc2)C1)C(=O)c1cc2cc(F)c(F)cc2[nH]1 (stereo not shown) [Compound 172]
> 10	COc1ccc(S(=O)(=O)N2CCC(CNC(=O)c3cc4ccccc4[nH]3)CC2)cc1 [Compound 325]
1.5 to 4	CCN(CC1CCN(C(C)(C)CC2CCOCC2)CC1)C(=O)c1cc2ccccc2[nH]1 [Compound 365]
1.5 to 4	CCN(CC1CCCCN1CCc1cccc(OC)c1)C(=O)c1cc2ccccc2[nH]1 (stereo not shown) [Compound 224]
1.5 to 4	CCN(CC1CCCN(Cc2ccc(Cl)cc2)C1)C(=O)c1cc2ccc(Cl)cc2[nH]1 (stereo not shown) [Compound 164]
4 to 7	CC(C)N(CC1CCN(Cc2cccc(Cl)c2)CC1)C(=O)c1cc2ccccc2[nH]1 [compound 278]
< 1.5	CCN(CC1CCN(C(C)(C)c2ccccc2)CC1)C(=O)c1cc2cc(OC)ccc2[nH]1 [Compound 359]
> 10	CC(C)N(CC1CCNCC1)C(=O)c1cc2ccccc2[nH]1 [compound 276]
< 1.5	CCN(CC1CCCN(Cc2ccc(Cl)cc2)C1)C(=O)c1cc2c(OC)cccc2[nH]1 (stereo not shown) [Compound 163]
< 1.5	CCN(CC1CCCN(Cc2ccc(Cl)cc2)C1)C(=O)c1cc2ccccc2[nH]1 (stereo not shown) [Compound 138]
> 10	CCN(CC1CCCN(CCc2ccccc2C#N)C1)C(=O)c1cc2ccccc2[nH]1 (stereo not shown) [Compound 147]
< 1.5	CCN(CC1CCCN(CCc2ccc(OC)cc2)C1)C(=O)c1cc2ccccc2[nH]1 (stereo not shown) [Compound 127]
> 10	CC(C)N(CC1CCN(Cc2ccccc2Cl)CC1)C(=O)c1cc2ccccc2[nH]1 [compound 281]
< 1.5	COc1cccc(CCN2CCCC(CN(C(=O)c3cc4ccccc4[nH]3)c3ccccc3)C2)c1 (stereo not shown) [Compound 144]

IC50 [µM]	Structure (SMILES)
> 10	CN(CC1CCN(Cc2ccc(Cl)cc2)CC1)C(=O)c1cc2ccccc2[nH]1 [compound 262]
< 1.5	CCN(CC1CCCN(CC(C)(C)c2cccc(OC)c2)C1)C(=O)c1cc2cc(OC)ccc2[nH]1 (stereo not shown) [Compound 406]
> 10	CN(CC1CCN(Cc2ccc(F)cc2)CC1)C(=O)c1cc2ccccc2[nH]1 [compound 269]
> 10	CC(C)N(CC1CCN(Cc2ccc(Cl)cc2)CC1)C(=O)c1cc2ccccc2[nH]1 [compound 283]
> 10	CCN(CC1CCCN(CCc2cccc(OC(F)F)c2)C1)C(=O)c1cc2cc(OC(F)F)ccc2[nH]1 (stereo not shown) [Compound 180]
< 1.5	COc1cccc(CCN2CCCC(CN(C)C(=O)c3cc4ccccc4[nH]3)C2)c1 (stereo not shown) [Compound 217]
> 10	COc1cccc(CN2CCC(CNC(=O)c3cc4ccccc4[nH]3)CC2)c1 [compound 292]
1.5 to 4	CCN(CC1CCCN(C(C)(C)c2cc3ccccc3o2)C1)C(=O)c1cc2ccccc2[nH]1 (stereo not shown) [compound 317]
< 1.5	CCN(CC1CCCN(CCc2cccc(OC)c2)C1)C(=O)c1cc2c([nH]1)CCCC2 (stereo not shown) [Compound 243]
< 1.5	CCN(CC1CCCN(CCc2cccc(Cl)c2)C1)C(=O)c1cc2ccccc2[nH]1 (stereo not shown) [Compound 141]
7 to 9.9	CCN(CC1CCN(Cc2ccc(OC(F)F)cc2)CC1)C(=O)c1cc2cc(OC(F)F)ccc2[nH]1 [compound 311]
< 1.5	CCN(CC1CCCN(Cc2cc3ccccc3o2)C1)C(=O)c1cc2c(OC)cccc2[nH]1 (stereo not shown) [Compound 204]
< 1.5	CCN(CC1CCCN(Cc2ccc(OC)cc2)C1)C(=O)c1cc2ccc(Cl)cc2[nH]1 (stereo not shown) [Compound 168]
> 10	CCN(CC1CCCN(C2CCc3ccc(OC)cc3C2)C1)C(=O)c1cc2ccccc2[nH]1 (stereo not shown) [Compound 210]
< 1.5	CCN(CC1CCCN(CCc2cccc(OC)c2)C1)C(=O)c1cn(C)c2ccccc12 (stereo not shown) [Compound 248]
1.5 to 4	CCN(CC1CCCN(c2ccc(OC)cc2)C1)C(=O)c1cc2ccccc2[nH]1 (stereo not shown) [Compound 227]

Same assay, conditions: inhibition of TDP-43 aggregation; PC12 TDP-43^Q331K::eGFP, 1 hour pre-treatment, 15 μM sodium arsenite for 23 hours; 10-point dose response

Structure (SMILES)	IC50 [µM]
CCN(CC1CCCN(C(C)(C)Cc2cccc(OC(F)F)c2)C1)C(=O)c1cc2cc(OC(F)F)ccc2[nH]1 (stereo not shown) [Compound 336]	< 1.5
CCN(CC1CCCN(C(C)(C)Cc2cccc(OC(F)(F)F)c2)C1)C(=O)c1cc2cc(OC(F)(F)F)ccc2[nH]1 (stereo not shown) [Compound 337]	< 1.5
CCN(CC1CCN(CC(C)(C)c2cc3ccccc3o2)CC1)C(=O)c1cc2ccccc2[nH]1 [compound 318]	< 1.5
CCN(CC1CCCN(C(C)(C)Cc2cccc(Cl)c2)C1)C(=O)c1cc2ccccc2[nH]1 (stereo not shown) [Compound 335]	< 1.5

— patent US20180305334A1, “COMPOUNDS, COMPOSITIONS AND METHODS OF USE AGAINST STRESS GRANULES” (Aquinnah Pharmaceuticals, Inc., priority 2015, published 2018)
